# From patent US20060142326A1, “Use of pyrazolopyridines for the treatment of cognitive deficits” (priority 2003, published 2006)
# What was measured:
# [1] = test system: granular cells of the cerebellum; experiment: Toxicity induced by kainate on granular cells of the cerebellum, MTT test; type: cell-based, Wistar rat; conditions: 50 μM kainate, six hours
# Experimental: (§1) Seven day old Wistar rats are decapitated and their cerebella are dissected. After having removed the meninges, the tissue is cut into small pieces and trypsinised for 15 minutes at 37° C. The cells are disassociated by trituration and placed in cultures at a density of 300,000 cells per cm^2 in Eagle's base medium supplemented with 10% foetal calf serum and 2 mM glutamine. The following day 10 μM ARA-C, an antimitotic, is added so as to prevent proliferation of the glial cells. The cells are treated for 9 days after placing in culture with the etazolate inhibiting compound, before adding toxics, 50 μM kainate or 100 μM N-methyl-D-aspartate in the presence of 10 μM D-serine. 8-bromo-cAMP is added just before the toxics. All of the treatments are carried out at least in duplicate and in at least two different cultures. Following an incubation of six hours, the toxicity is measured by an MTT test. The results, standardised to the untreated average, are statistically analysed by the Wilcoxon test. The significant value is established at p less than or equal to 0.05. Toxicity is measured using the MTT test. Following incubation with the compounds, MTT is added at a final concentration of 0.5 mg/ml per well. The plaques are then incubated for 30 minutes at 37° C. in the dark. […] The absorbance at 550 nm is read and the viability percentage is calculated.
# [2] = test system: granular cells of the cerebellum; experiment: Toxicity induced by NMDA/serine on granular cells of the cerebellum, MTT test; type: cell-based, Wistar rat; conditions: 100 μM NMDA + 10 μM D-serine, six hours
# Experimental: as §1
# cortical neurons [3] = experiment: Toxicity induced by NMDA/serine on cortical neurons, MTT test; type: cell-based, Wistar rat; conditions: 20 μM NMDA + 10 μM D-serine, six hours
# Experimental: (§2) 16 day old Wistar rat embryos are taken and the cortexes dissected. Following trypsination at 37° C. for 25 minutes, the cells are dissociated by trituration. The cells are sown in minimum essential medium, supplemented with 10% horse serum and 10% foetal calf serum and 2 mM glutamine, at a density of 300,000 cells per cm^2. After 4 days in culture half of the medium is changed with minimum essential medium supplemented with 5% horse serum and 2 mM glutamine. […] After seven and eleven days of culture, half of the medium is changed with conditioned medium. The conditioned medium is made up from MEM containing 5% horse serum and 2 mM glutamine; this medium is passed over a carpet of cortical astrocytes for a night before being used. On day 14, the cells are treated with the etazolate inhibitor compound, before adding toxics, 50 μM kainate or 20 μM N-methyl-D-aspartate in the presence of 10 μM D-serine. All of the treatments are carried out at least in duplicate and in at least two different cultures. Following an incubation of six hours the toxicity is measured by an MTT test. The results, standardised to the untreated average, are statistically analysed by the Wilcoxon test. The significant value is established at ρ less than or equal to 0.05. Toxicity is measured using the MTT test. […] The absorbance at 550 nm is read and the viability percentage is calculated.
# cortical neurons [4] = experiment: Toxicity induced by kainate on cortical neurons, MTT test; type: cell-based, Wistar rat; conditions: 50 μM kainate, six hours
# Experimental: as §2
# [5] = Single increasing oral dose study in healthy volunteers (tolerance, plasmatic dosage); type: in vivo, human
# Experimental: In this study, single, increasing doses of etazolate (0.5, 1, 2, 5, 10 and 20 mg) were administered orally in the form of capsules dosed at 0.5 and 5 mg to different and sequential groups of eight young, healthy, volunteer subjects of the male sex. This study was carried out in just one centre, double-blind, and two of the eight subjects were given a placebo. The parameters evaluated were clinical (appearance of adverse effects, of clinical signs, change in arterial pressure or heart rate), electrocardiographic (ECG recording) and biological tolerance (hematology and sanguineous biochemistry, urinary examination) for the 24 hrs following administration of the product. A plasmatic dosage of the product was carried out in each subject at different times before and after administration of the product (0.25-0.50-1.00-1.50-2.00-3.00-4.00-5.00-6.00-8.00-10.00-12.00 and 24.00 hours). A urinary dosage of the product was also carried out from urines collected before and after administration of the product (4, 4-8, 8-12 and 12-24 hours).
# [6] = test system: cerebral infarction in rats; experiment: Model of cerebral infarction in rats (occlusion of the internal carotide and medium arteries of the brain); type: in vivo; conditions: rat
# Experimental: The in vivo protective effect of etazolate was evaluated in a model of cerebral infarction in rats. During this study, a cerebral infarction was brought about by an intracavity occlusion of the internal carotide and the medium arteries of the brain. A group of eight rats was treated with etazolate (10 mg/kg, p.o.) before and several times after occlusion. A group of eight rats was treated with the reference compound, L-NAME (1 mg/kg, i.p.) before and several times after occlusion. A group of eight rats was only treated with the vehicle. The effects were evaluated by clinical observations, neurological function tests and by establishing the size of the infarction at the end of the study.
# [7] = test system: ventral spinal cord cells; experiment: Toxicity induced by NMDA/serine on ventral spinal cord cells, MTT test; type: cell-based, Wistar rat; conditions: 25 μM NMDA + 10 μM D-serine, 3 hours
# Experimental: The cells are isolated from 14 day old Wistar rat embryos. Upon their arrival, the pregnant female rats are sacrificed by means of carbon dioxide. The series of embryos is taken and placed in a box containing PBS. The spinal cord of each embryo is dissected and the ventral cord is separated from the dorsal cords. The ventral cords are then trypsinised at 37° C. for 20 mins. The effect of the trypsin is halted by the addition of a medium made up from Leibovitz 15 medium, 20% horse serum, N2 (1×) supplement, 20% glucose (3.2 mg/ml), 7.5% bicarbonate (1.8 mg/ml) and L-glutamine (2 mM). The cells are dissociated by trituration. The accumulated tissue is removed and the dissociated cells are then quantified by dying with trypan blue. The cells sown at a density of 250 000 cells/cm^2 in a medium made up from neurobasal medium, horse serum (2%), B27 (1×) supplement, and glutamine (2 mM). After 3 days of in vitro culture, an anti-mitotic agent, ARA-C (5 μM), is added to the cells so as to inhibit production of glial cells. The cells are placed in culture at 37° C. in a humidified incubator (5% CO2) for 9 days. […] The results are standardised to the average of the untreated controls and analysed statistically by means of a Wilcoxon test with ρ less than 0.05. Toxicity is measured using the MTT test. […] The absorbance at 550 nm is read and the viability percentage is calculated.
# SH-SY5Y cells = experiment: Toxicity induced by 6-hydroxydopamine (oxidative stress) on SH-SY5Y cells, MTT test; type: cell-based, human; conditions: 6-OHDA treatment
# Experimental: In this example, cells from the SH-SY5Y line were placed in culture according to the techniques known to experts in the field. These cells, derived from a human neuroblast, have properties which characterise a neuronal precursor at a premature stage of development. The toxic used is 6-hydroxydopamine (6-OHDA) which induces oxidative stress. Toxicity is measured by an MTT test.
# old rats = experiment: Aquatic labyrinth test (Morris pool) in old rats; type: in vivo, rat
# From the text: This test is used to evaluate the capacities to memorise and to manage spatial information in rats in an aversive situation. The task consists for the animal of locating with the help of distance indices a <<refuge >> platform, invisible by immersion in a tank filled with opacified water. The device makes it possible to evaluate the reference memory of the animal (the platform remains in the same place on each day of the test). This test makes it possible to appreciate the […] performances dependent upon the functions of the hippocampus of the animals tested. In particular, this test makes it possible to discriminate between the performances of adult rats (10 months) and those of old rats (30 months). The hippocampus is a cerebral structure the functions of which are altered prematurely in Alzheimer's disease. The Morris pool test is therefore particularly recognised by experts in the field as making it possible to appreciate the pharmacological properties of compounds intended to treat Alzheimer's disease and other diseases associated with a cognitive deficit. Old rats treated with etazolate (3 mg/kg and 10 mg/kg) administered orally and rats treated by the vehicle were used for this study. The performances of these animals in the Morris pool test were compared to those of a control group of adult rats.
compound,measurement,setting,value
CCOC(=O)c1cnc2c(cnn2CC)c1NN=C(C)C [etazolate],protective effect,[1],50%
same,protective effect,[2],40%
same,protective effect,cortical neurons [3],47%
same,protective effect,cortical neurons [4],40%
same,secondary effects,"[5]; healthy male volunteers, single oral doses 0.5-20 mg",did not involve any secondary effects
same,"tolerance (clinical, electrocardiographic, biological)","[5]; healthy male volunteers, single oral doses 0.5-20 mg, 24 hrs",well tolerated
same,absorption (plasmatic dosages),"[5]; humans, oral capsules, at strong doses",good absorption
same,neurological evaluation relative to the control group,[6]; 10 mg/kg p.o.,improvement
same,reduction of the size of the infarction relative to the control,"[6]; 10 mg/kg p.o. before and several times after occlusion, average",28%
same,hypoactivity,"[6]; 10 mg/kg p.o., control group 42%",31%
same,protective effect,[7],36%
same,protective effect,SH-SY5Y cells,40%
same,performances in the Morris pool test,old rats; 3 mg/kg orally,slightly improves the performances of old rats
same,performances in the Morris pool test,"old rats; 10 mg/kg orally, compared to adult rats",importantly brings the performances of old animals closer to those of adult animals
